Data from patent publication US8097759B2, “Inflammatory cytokine release inhibitor” (Institute of Medicinal Molecular Design, Inc., priority 2000, dated 2012).

Tested on: NF-κB activation
Assay: NF-κB activation reporter assay (pNFκB-Luc luciferase) under TNF-α stimulation
Type: cell-based, human
Conditions: HepG2 or HeLa cells, TNF-α 40 ng/ml, 4 hours; for inhibition at 1 µg/mL / inhibition at 10 µg/mL: Homo sapiens, read-out: The rate of inhibitory activity against NF-κB activation (%)
Description: Using a transfection reagent (Effectene; QIAGEN), the human hepatoma cell strain HepG2 or the human hysterocarcinoma cell strain HeLa was transfected with the firefly luciferase gene (Luc) contained plasmid (pNF κB-Luc Reporter Plasmid; […]) which contained oligonucleotide having five tandem copies of NF-κB binding sequences ([…]) on a upstream region of Luc, according to the QUAGEN's protocol and it was incuvated for 6-24 hours. After addition of TNF-α (40 ng/ml) with or without the test compound, the cells were incuvated for 4 hours, and intracellular luciferase activity was measured with PicaGene LT (TOYO INK MFG Co., Ltd.) and chemical luminescence measurement device ([…]luor Plus; TECAN). The inhibition ratio was measured as a ratio to the value of the luciferase activity without the test compound.

[1] = Concentration of the agent: 1 μg/mL
[2] = Concentration of the agent: 10 μg/mL

Row | SMILES | inhibition at 1 µg/mL [1] [%] | inhibition at 10 µg/mL [2] [%] | The rate of inhibitory activity against NF-κB activation (%) [1] [%] | The rate of inhibitory activity against NF-κB activation (%) [2] [%]
1 | O=C(Nc1ccnc(Cl)c1)c1cc(Cl)ccc1O [Compound 42, 5-Chloro-N-(2-chloropyridin-4-yl)-2-hydroxybenzamide] | 14.3 | 92.3 | – | –
2 | COc1cc(Cl)nc(NC(=O)c2cc(Cl)ccc2O)n1 [Compound 43, 5-Chloro-N-(6-chloro-4-methoxypyrimidin-2-yl)-2-hydroxybenzamide] | 25.5 | 78.9 | – | –
3 | CC(=O)Oc1ccc(Cl)cc1C(=O)Nc1cc2ccccc2[nH]1 [Compound 44, 2-Aceoxy-5-chloro-N-(indol-2-yl)benzamide] | – | – | 36.7 | 65.8
4 | CCOC(=O)c1c[nH]c2c(NC(=O)c3ccccc3OC(C)=O)cccc12 [Compound 45, 7-[(2-Acetoxybenzoyl)amino]indole-3-carboxylic acid ethyl ester] | 61.7 | 91.3 | – | –
5 | O=C(Nc1cnc2ccccc2c1)c1cc(Cl)ccc1O [Compound 46, 5-Chloro-2-hydroxy-N-(quinolin-3-yl)benzamide] | -43.7 | 85.7 | – | –
6 | CCn1c2ccccc2c2cc(NC(=O)c3cc(Cl)ccc3O)ccc21 [Compound 47, N-(9-Ethylcarbazol-3-yl)-5-chloro-2-hydroxybenzamide] | 91.3 | 99.4 | – | –
7 | O=C(Nc1cc(C(F)(F)F)cc(C(F)(F)F)c1)c1ccccc1O [Compound 48] | 93.3 | 95.6 | – | –
8 | O=C(Nc1cc(C(F)(F)F)cc(C(F)(F)F)c1)c1cc(F)ccc1O [Compound 49] | 81.5 | 94.3 | – | –
9 | O=C(Nc1cc(C(F)(F)F)cc(C(F)(F)F)c1)c1cc(Cl)ccc1O [Compound 50] | 96.3 | 99.5 | – | –
10 | O=C(Nc1cc(C(F)(F)F)cc(C(F)(F)F)c1)c1cc(Br)ccc1O [Compound 51] | 94.9 | 98.6 | – | –
11 | O=C(Nc1cc(C(F)(F)F)cc(C(F)(F)F)c1)c1cc([N+](=O)[O-])ccc1O [Compound 53] | 92 | 99.2 | – | –
12 | Cc1ccc(O)c(C(=O)Nc2cc(C(F)(F)F)cc(C(F)(F)F)c2)c1 [Compound 55] | 95.8 | 99.4 | – | –
13 | CC(O)c1ccc(O)c(C(=O)Nc2cc(C(F)(F)F)cc(C(F)(F)F)c2)c1 (centres unmarked) [Compound 57] | 76.8 | 96 | – | –
14 | O=C(Nc1cc(C(F)(F)F)cc(C(F)(F)F)c1)c1cc(C=Cc2ccccc2)ccc1O [Compound 63] | 95.5 | 96.9 | – | –
15 | C#Cc1ccc(O)c(C(=O)Nc2cc(C(F)(F)F)cc(C(F)(F)F)c2)c1 [Compound 64] | 53.3 | 90.1 | – | –
16 | C[Si](C)(C)C#Cc1ccc(O)c(C(=O)Nc2cc(C(F)(F)F)cc(C(F)(F)F)c2)c1 [Compound 66] | 91.1 | 94.9 | – | –
17 | O=C(Nc1cc(C(F)(F)F)cc(C(F)(F)F)c1)c1cc(-c2ccccc2)ccc1O [Compound 67] | 91.8 | 96.8 | – | –
18 | O=C(Nc1cc(C(F)(F)F)cc(C(F)(F)F)c1)c1cc(C(F)(F)F)ccc1O [Compound 69] | 96.4 | 99.6 | – | –
19 | O=C(Nc1cc(C(F)(F)F)cc(C(F)(F)F)c1)c1cc(C(F)(F)C(F)(F)F)ccc1O [Compound 70] | 93.3 | 95.4 | – | –
20 | O=C(Nc1cc(C(F)(F)F)cc(C(F)(F)F)c1)c1cc(-n2cccc2)ccc1O [Compound 71] | 93.8 | 97.9 | – | –
21 | O=C(Nc1cc(C(F)(F)F)cc(C(F)(F)F)c1)c1cc(-c2cccs2)ccc1O [Compound 72] | 79.5 | 97.8 | – | –
22 | O=C(Nc1cc(C(F)(F)F)cc(C(F)(F)F)c1)c1cc(-c2ccsc2)ccc1O [Compound 73] | 81.7 | 92.9 | – | –
23 | COc1ccc(O)c(C(=O)Nc2cc(C(F)(F)F)cc(C(F)(F)F)c2)c1 [Compound 77] | 30.7 | 97 | – | –
24 | O=C(Nc1cc(C(F)(F)F)cc(C(F)(F)F)c1)c1ccc(O)c(C(=O)Nc2cc(C(F)(F)F)cc(C(F)(F)F)c2)c1 [Compound 82] | -8.7 | 94.5 | – | –
25 | O=C(Nc1ccc(O)c(C(=O)Nc2cc(C(F)(F)F)cc(C(F)(F)F)c2)c1)c1ccccc1 [Compound 90] | 1 | 63.4 | – | –
26 | O=C(Nc1ccccc1)Nc1ccc(O)c(C(=O)Nc2cc(C(F)(F)F)cc(C(F)(F)F)c2)c1 [Compound 91] | 20.5 | 88.4 | – | –
27 | O=C(Nc1cc(C(F)(F)F)cc(C(F)(F)F)c1)c1cc(NC(=S)Nc2ccccc2)ccc1O [Compound 92] | 51.8 | 97.2 | – | –
28 | O=C(Nc1cc(C(F)(F)F)cc(C(F)(F)F)c1)c1cc(N=Nc2ccc([N+](=O)[O-])cc2)ccc1O [Compound 93] | 96.2 | 98.7 | – | –

Row | SMILES | inhibition at 1 µg/mL [1] [%] | inhibition at 10 µg/mL [2] [%] | The rate of inhibitory activity against NF-κB activation (%) [1] [%] | The rate of inhibitory activity against NF-κB activation (%) [2] [%]
29 | CC(=O)Oc1ccccc1C(=O)Nc1cc(C(F)(F)F)cc(C(F)(F)F)c1 [Compound 95, 2-Acetoxy-[3,5-bis(trifluoromethyl)phenyl]benzamide] | – | – | 90.9 | 97.1
30 | CC(=O)Oc1ccc(Cl)cc1C(=O)Nc1cc(C(F)(F)F)cc(C(F)(F)F)c1 [Compound 96] | 96.5 | 99.2 | – | –
31 | CC(=O)Nc1cc(O)c(C(=O)Nc2cc(C(F)(F)F)cc(C(F)(F)F)c2)cc1Cl [Compound 97] | 69.9 | 96 | – | –
32 | O=C(Nc1cc(C(F)(F)F)cc(C(F)(F)F)c1)c1ccc(Cl)cc1O [Compound 98] | 90.5 | 98.2 | – | –
33 | O=C(Nc1cc(C(F)(F)F)ccc1C(F)(F)F)c1cc(Br)ccc1O [Compound 101] | 95.7 | 98.3 | – | –
34 | O=C(Nc1ccccc1C(F)(F)F)c1cc(Cl)ccc1O [Compound 104] | 76.2 | 96.9 | – | –
35 | O=C(Nc1cccc(C(F)(F)F)c1)c1cc(Br)ccc1O [Compound 106] | 80.7 | 93.3 | – | –
36 | O=C(Nc1cccc(C(F)(F)F)c1F)c1cc(Cl)ccc1O [Compound 107] | 92.3 | 95 | – | –
37 | O=C(Nc1ccc(F)c(C(F)(F)F)c1)c1cc(Cl)ccc1O [Compound 108] | 94.7 | 97.6 | – | –
38 | O=C(Nc1ccc(Cl)c(C(F)(F)F)c1)c1cc(Br)ccc1O [Compound 109] | 83 | 88.8 | – | –
39 | O=C(Nc1cc(F)cc(C(F)(F)F)c1)c1cc(Cl)ccc1O [Compound 110] | 94.7 | 98.9 | – | –
40 | O=C(Nc1cc(C(F)(F)F)ccc1F)c1cc(Cl)ccc1O [Compound 112] | 93.1 | 95.9 | – | –
41 | O=C(Nc1cc(C(F)(F)F)ccc1Cl)c1cc(Cl)ccc1O [Compound 113] | 94.8 | 97.1 | – | –
42 | O=C(Nc1cc(C(F)(F)F)ccc1Cl)c1cc(Br)ccc1O [Compound 114] | 88.9 | 94.1 | – | –
43 | O=C(Nc1ccc([N+](=O)[O-])c(C(F)(F)F)c1)c1cc(Cl)ccc1O [Compound 115] | 89 | 94.3 | – | –
44 | O=C(Nc1cc(C(F)(F)F)ccc1[N+](=O)[O-])c1cc(Cl)ccc1O [Compound 116] | 86.3 | 96.7 | – | –
45 | Cc1c(NC(=O)c2cc(Cl)ccc2O)cccc1C(F)(F)F [Compound 118] | 94.1 | 96.3 | – | –
46 | Cc1ccc(NC(=O)c2cc(Cl)ccc2O)cc1C(F)(F)F [Compound 119] | 88.1 | 91.7 | – | –
47 | Cc1ccc(C(F)(F)F)cc1NC(=O)c1cc(Cl)ccc1O [Compound 120] | 93.8 | 97.9 | – | –
48 | COc1ccc(NC(=O)c2cc(Cl)ccc2O)cc1C(F)(F)F [Compound 121] | 85.5 | 96.5 | – | –
49 | COc1cc(NC(=O)c2cc(Br)ccc2O)cc(C(F)(F)F)c1 [Compound 122] | 84.5 | 97.2 | – | –
50 | COc1ccc(C(F)(F)F)cc1NC(=O)c1cc(Br)ccc1O [Compound 123] | 76.6 | 93.4 | – | –
51 | CSc1ccc(C(F)(F)F)cc1NC(=O)c1cc(Cl)ccc1O [Compound 125] | 94.6 | 99.1 | – | –
52 | O=C(Nc1cc(C(F)(F)F)ccc1N1CCCC1)c1cc(Br)ccc1O [Compound 126] | 95.8 | 97.8 | – | –
53 | O=C(Nc1cc(C(F)(F)F)ccc1N1CCOCC1)c1cc(Br)ccc1O [Compound 127] | 81.8 | 86.4 | – | –
54 | O=C(Nc1ccc(C(F)(F)F)cc1)c1cc(Cl)ccc1O [Compound 128] | 87.2 | 95 | – | –
55 | O=C(Nc1ccc(C(F)(F)F)cc1Cl)c1cc(Br)ccc1O [Compound 129] | 75.4 | 85.8 | – | –
